Reference: PubChem BioAssay (NCI)
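Growth conditions: 96-well plates. Treatment: test compound, 48 hours, 5 concentrations. Analysis: linear interpolation between bracketing concentrations; unreached endpoints set to highest concentration. GI50 marks 50% less growth. At the TGI there is no net growth.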

Key:
Assay in all cases: DTP human tumour cell line panel, 48 h
COLO 205 colon = system: COLO 205 colon
EKVX NSCLC = system: EKVX NSCLC
HL-60(TB) leukemia = system: HL-60(TB) leukemia
IGROV1 ovarian = system: IGROV1 ovarian
KM12 colon = system: KM12 colon
MDA-MB-231 breast = system: MDA-MB-231 breast
SK-OV-3 ovarian = system: SK-OV-3 ovarian
SNB-19 CNS = system: SNB-19 CNS
SNB-75 CNS = system: SNB-75 CNS
MALME-3M melanoma = system: MALME-3M melanoma

Structure (SMILES)	GI50 (COLO 205 colon) [µM]	TGI (COLO 205 colon) [µM]	GI50 (EKVX NSCLC) [µM]	TGI (EKVX NSCLC) [µM]	GI50 (HL-60(TB) leukemia) [µM]	TGI (HL-60(TB) leukemia) [µM]	GI50 (IGROV1 ovarian) [µM]	TGI (IGROV1 ovarian) [µM]	GI50 (KM12 colon) [µM]	TGI (KM12 colon) [µM]	GI50 (MDA-MB-231 breast) [µM]	TGI (MDA-MB-231 breast) [µM]	GI50 (SK-OV-3 ovarian) [µM]	TGI (SK-OV-3 ovarian) [µM]	GI50 (SNB-19 CNS) [µM]	TGI (SNB-19 CNS) [µM]	GI50 (SNB-75 CNS) [µM]	TGI (SNB-75 CNS) [µM]	GI50 (MALME-3M melanoma) [µM]	TGI (MALME-3M melanoma) [µM]
COc1ccc2c(c1)[n+](=O)c(C(=O)c1ccco1)c(C(F)(F)F)n2[O-]	3.55	18.7	3.47	9.81	3.29	> 100	2.57	20.4	4.48	32.6	3.01	13.2	3.15	25.9	4.25	45.5	3.83	25.6	–	–
CCOC(=O)c1c(C)n2c(=O)cc(C)c3c(O)c(O)cc1c32	13.1	> 100	20.8	> 100	2.92	17.2	4.83	87	4.13	42.2	4.49	30.2	–	–	8.72	> 100	35.6	> 100	–	–
CC(=O)c1cc(C(=O)c2ccc3c(c2)Sc2ccccc2N3)c2c(C)cc(C)cn12	0.222	0.535	0.636	> 100	–	–	0.596	> 100	0.353	> 46.7	0.458	8.95	0.342	–	0.443	> 100	0.171	1.5	5.73	> 100
Cl.Fc1c[c-]c(-c2ccccn2)c(F)c1.[Pt].c1ccc(P(c2ccccc2)C([PH+](c2ccccc2)c2ccccc2)[PH+](c2ccccc2)c2ccccc2)cc1	1.87	3.92	3.1	> 100	1.95	6.07	3.16	> 100	3.55	14.7	2.28	7.06	–	–	4.88	> 100	2.01	9.5	2.5	7.3
CC(=O)c1ccc(OCC(O)CO)cc1 (stereo unspecified)	–	> 100	–	> 100	–	> 100	–	> 100	–	> 100	–	–	–	> 100	–	> 100	–	> 100	–	> 100
Cc1cc2c(cc1C)[n+](=O)c(C(=O)C/C(=N/OCCCc1ccccc1)C(=O)Nc1cc(Cl)ccc1Cl)c(C)n2[O-]	–	> 100	–	> 100	–	> 100	–	> 100	–	> 100	–	–	–	> 100	–	> 100	–	> 100	–	> 100
Nc1nc2c(s1)CCc1c-2c(Br)n(Cc2ccccc2)c1Br	2.53	5.13	–	–	5.64	37.1	14.1	37.5	14	33.3	14.1	48.7	23.6	53.7	23.3	86.4	14.5	33.1	3.76	15.4
CN(C)c1ccc(N=C2C=CC(=[N+](C)C)C=C2)cc1	4.2	16.2	3.58	40.7	–	–	5.35	37.8	3.91	15	6.41	> 100	15.5	78.6	6.45	> 100	5.86	21.2	8.97	38.6
O=C1NC(=O)C(=C/C=C/c2ccccc2)C(=O)N1	2.33	4.97	–	–	2.91	8.08	–	–	1.74	3.26	3.73	16	16.5	30.5	5.14	24.7	6	19.4	–	–
Cn1cc(C2=C(c3cn(C)c4c([N+](=O)[O-])cccc34)C(=O)NC2=O)c2ccccc21	> 25	> 25	–	–	> 25	> 25	> 25	> 25	> 25	> 25	> 25	> 25	> 25	> 25	> 25	> 25	> 25	> 25	> 25	> 25
CC1COc2c(N3CCN(C)CC3)c(F)cc3c(=O)c(C(=O)O)cn1c23 (stereo unspecified)	> 100	> 100	> 100	> 100	–	–	> 100	> 100	> 100	> 100	81.7	> 100	> 100	> 100	> 100	> 100	> 100	> 100	> 100	> 100
Cc1ccccc1-n1ncc(C(=O)c2ccccc2)c1N	> 25	> 25	–	–	> 25	> 25	> 25	> 25	> 25	> 25	> 25	> 25	> 25	> 25	> 25	> 25	> 9.3	> 25	> 25	> 25
NNC(=O)CNC(=O)c1ccc(Cl)cc1Cl	–	> 100	–	> 100	–	> 100	–	> 100	–	> 100	–	–	–	> 100	–	> 100	–	> 100	–	> 100
N#Cc1c2c(c(N=P(c3ccccc3)(c3ccccc3)c3ccccc3)n3c1nc1ccccc13)CCCC2	–	24.8	–	> 100	–	24.8	–	> 100	–	> 100	–	–	–	> 100	–	99.2	–	69.7	–	> 100
Clc1cccc(Cl)c1C1CSc2ccccc2N=C1c1ccccc1 (stereo unspecified)	12.3	33.5	–	–	8.2	38.7	3.13	11.8	2.15	4.69	2.95	14.1	11.5	24.4	11.5	24.6	2.53	17.2	10.9	27.8
CC1SC2=NC3=C(c4ccccc4C3=O)C(c3ccc(Cl)cc3)N2C1=O (stereo unspecified)	–	> 100	–	> 100	–	> 100	–	> 100	–	> 100	–	–	–	> 100	–	> 100	–	> 100	–	> 100
